Test system: Pseudomonas aeruginosa (ATCC 10145)
Assay: MIC by microbroth dilution and synergy index, Pseudomonas aeruginosa
Format: cell-based
Conditions: product level
Description: MICs were determined via microbroth dilution using the following specific test parameters:
Necessary organism dilutions via OD600 were calculated based on OD600 of 1.0 being equivalent to 8*10^8 CFU/mL. Biocide dilutions were performed in 2-fold increments for each assay.
Synergy index (SI) scores were calculated according to the mass action equation below:
S.I.=[MIC[A] in-blend/MIC[A] alone]+[MIC[B] in-blend/MIC[B] alone]
Combinations of ingredients were determined to be synergistic (S.I.≤0.5), additive (S.I.>0.5 to 1), indifferent (S.I.>1 to <2) or antagonistic (S.I.≥2), as defined by EUCAST guidelines^1. 1 European Committee for Antimicrobial Susceptibility Testing (EUCAST) of the European Society of Clinical Microbiology and Infectious Diseases (ESCMID). EUCAST Definitive Document E.Def 1.2, May 2000: Terminology relating to methods for the determination of susceptibility of bacteria to antimicrobial agents. Clin. Microbiol. Infect. Off. Publ. Eur. Soc. Clin. Microbiol. Infect. Dis. 6, 503-508 (2000).
MIC values for Mergal BIT20X (20% BIT), individual amines, and 1:1 mixtures of amines and Mergal BIT20X were determined against the test organism Pseudomonas aeruginosa (ATCC 10145) using 96-well microbroth dilution methodology.
Synergy of Jeffamine T403 and Mergal BIT20X mixtures from 1:50 to 50:1 were tested against P. aeruginosa. Jeffamine T403 was diluted to 20% w/w before mixing with Mergal BIT20X at the indicated ratios. The results are plotted in FIG. 1. Jeffamine T403 and Mergal BIT20X are synergistic at ratios with excess T403. In FIG. 1, the x-axis indicates the fractional BIT level in the blend (1=100% BIT, 0=100% T403, 0.5=50% BIT, 50% T403, etc.), the left y-axis is the MIC against Pseudomonas aeruginosa (ATCC 10145), and the right y-axis is the calculated Synergy Index (SI). The dotted line indicates the synergy index cutoff as defined by EUCAST guidelines (SI<0.5). The MIC raw data is presented in Table 3; MIC values are reported on active concentration.

Row | MIC, Amine Only, Avg. [ppm] | MIC, Amine Only, Rep. 1 [ppm] | MIC, Amine Only, Rep.2 [ppm] | Structure (SMILES)
1 | 2500 | 2500 | 2500 | CC(CN)CCCN (stereo not drawn) [Dytek A]
2 | 938 | 625 | 1250 | NCCNCCNCCN [TETA]

Source: patent publication US20220145092A1, “BIT COMPOSITIONS WITH SIGNIFICANTLY IMPROVED ACTIVITY” (Troy Technology II, Inc., priority 2020, published 2022)
